Measured values as given in PMC8607422, “Development of a novel TLR8 agonist for cancer immunotherapy” (Molecular Biomedicine, 2020).
Read-outs that look alike come from different tables or passages of the source.

Key:
CYP 1A2 = target: T1, CYP 1A2 (Homo sapiens, UniProt P05177); experiment: CYP inhibition assay in human liver microsomes; format: in vitro ADME
T1 construct: using human liver microsomes (BD Gentest); tissue BD Gentest; host or cells: human liver microsomes
T1 sequence (P05177 1-516): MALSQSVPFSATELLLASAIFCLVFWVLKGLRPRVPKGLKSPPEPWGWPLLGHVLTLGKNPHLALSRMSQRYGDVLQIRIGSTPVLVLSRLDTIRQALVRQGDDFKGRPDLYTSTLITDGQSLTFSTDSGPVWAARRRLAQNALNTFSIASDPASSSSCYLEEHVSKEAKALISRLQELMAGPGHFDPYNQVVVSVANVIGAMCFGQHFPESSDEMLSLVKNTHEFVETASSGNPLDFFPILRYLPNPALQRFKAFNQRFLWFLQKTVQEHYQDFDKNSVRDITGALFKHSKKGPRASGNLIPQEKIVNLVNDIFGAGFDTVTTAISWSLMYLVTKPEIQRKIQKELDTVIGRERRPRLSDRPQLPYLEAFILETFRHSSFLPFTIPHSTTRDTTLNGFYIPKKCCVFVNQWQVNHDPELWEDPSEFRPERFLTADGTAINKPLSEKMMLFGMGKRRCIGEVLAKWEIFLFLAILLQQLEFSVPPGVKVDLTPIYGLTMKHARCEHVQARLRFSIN
Protocol: (§1) CYP inhibition assay was conducted to evaluate the inhibitive potential of the compounds on CYP 1A2, 2C9, 2C19, 2D6 and 3A4 using human liver microsomes (BD Gentest). Curve-fitting was performed to calculate IC50 using a Sigmoidal (non-linear) dose-response model using GraphPad Prism (GraphPad Software Inc.).

CYP 2D6 = target: T2, CYP 2D6 (Homo sapiens, UniProt P10635); experiment: CYP inhibition assay in human liver microsomes; format: in vitro ADME
T2 construct: using human liver microsomes (BD Gentest); tissue BD Gentest; host or cells: human liver microsomes
Protocol: as §1

CYP 3A4 = target: T3, CYP 3A4 (Homo sapiens, UniProt P08684); experiment: CYP inhibition assay in human liver microsomes; format: in vitro ADME
T3 construct: using human liver microsomes (BD Gentest); tissue BD Gentest; host or cells: human liver microsomes
Protocol: as §1

serum cytokines = experiment: In vivo cytokine induction in monkeys; parameters: species or system cynomolgus monkeys; conditions: monkey, 1 mg/kg sc single dose
Protocol: Cynomolgus monkeys were purchased from Guangxi Xiongsen Primate Laboratory Animals Co., Ltd. (Guangxi, China) and three 3–4 years old male monkeys were used in each group. […] A single dose of motolimod was sc administered at 1 mg/kg. Blood samples were collected pre-dose, 6 and 24 h post-dose. Levels of cytokines including IFN-γ, IL-10, IL-1β, IL-6, IL-8, MIP-1α, MIP-1β, G-CSF, IL-12p40, IL-12p70 and TNF-α were measured using MSD ECL cytokine assay kit following the manufacturer’s protocol.

in vivo = experiment: in vivo; parameters: species or system cynomolgus monkeys; conditions: cynomolgus, cynomolgus monkey, sc, 1 mg/kg
Protocol: To determine the in vivo pharmacokinetic profiles, the compounds were formulated with 11% captisol and then administered iv, ip, sc and po into Sprague Dawley rats or iv and sc into mice or cynomolgus monkeys, respectively. Blood samples were collected before dosing and 0.083 h, 0.25 h, 0.5 h, 1 h, 2 h, 4 h, 6 h, 8 h, 12 h and 24 h after dosing. Blood samples were collected in tubes containing K2EDTA. Plasma was isolated from the blood samples by centrifugation of the blood samples at 2400 × g for 5 min at 4°C. Plasma samples were measured using LC-MS/MS (Waters ACQUITY UPLC and TQ 6500+) to determine the concentration of compounds. The data was analyzed using WinNonlin 7.0 to calculate the PK parameters such as AUC0-t, AUC0-∞, MRT0-∞, Cmax, Tmax, t1/2 and F.

[1] = parameters: method as in Northfelt, et al., [39]; conditions: human, sc 0.1 mg/m^2; ref Northfelt, et al., [39]; cited from earlier work
hTLR4 = target: T4, hTLR4 (Homo sapiens, UniProt O00206+Q9Y6Y9); experiment: HEK-Blue hTLR4 SEAP reporter agonist assay; format: cell-based; conditions: HEK-Blue hTLR4 cells, highest concentration 50 μM
T4 construct: host or cells: HEK-Blue hTLR4
Excerpt: HEK-Blue™ hTLR4, 7, 8 and 9 cell lines were purchased from InvivoGen (Hong Kong). The cells express the human TLR gene and NF-κB/AP-1-inducible SEAP (secreted embryonic alkaline phosphatase) reporter gene. SEAP levels produced upon TLR stimulation can be determined by QUANTI-Blue™. In the cell-based assay, the main reagents used were QUANTI-Blue™ (InvivoGen) and ATPlite 1 Step (Perkin Elmer). The main instruments used were the microplate reader SpectraMax 340PC (Molecular Device) and Envision (Perkin Elmer). Motolimod and DN052 were synthesized in house. […] The compounds were in 10 mM stock solution in DMSO and stored at − 20°C. The compounds were serially diluted in the concentration range from 0.5 nM to 15 μM (up to 50 μM in the hTLR4, hTLR7 and hTLR9 assays) and added to 96-well plates. DMSO was used as the negative control. LPS-EK, R848, motolimod and ODN2006 were used as the positive control for TLR4, 7, 8 and 9, respectively. The cells were cultured and treated with the compounds at 37°C, 5%CO2 for 24 h. […] After 1.5 h of incubation, the optical density was measured using the spectrophotometer at 650 nm in the microplate reader of SpectraMax 340PC. The cell viability of each well was determined using ATPlite 1 Step following the manufacturer’s instruction. The luminescence signal in each well of plates was measured in the microplate reader of Envision.

T4 sequence (O00206 24-839): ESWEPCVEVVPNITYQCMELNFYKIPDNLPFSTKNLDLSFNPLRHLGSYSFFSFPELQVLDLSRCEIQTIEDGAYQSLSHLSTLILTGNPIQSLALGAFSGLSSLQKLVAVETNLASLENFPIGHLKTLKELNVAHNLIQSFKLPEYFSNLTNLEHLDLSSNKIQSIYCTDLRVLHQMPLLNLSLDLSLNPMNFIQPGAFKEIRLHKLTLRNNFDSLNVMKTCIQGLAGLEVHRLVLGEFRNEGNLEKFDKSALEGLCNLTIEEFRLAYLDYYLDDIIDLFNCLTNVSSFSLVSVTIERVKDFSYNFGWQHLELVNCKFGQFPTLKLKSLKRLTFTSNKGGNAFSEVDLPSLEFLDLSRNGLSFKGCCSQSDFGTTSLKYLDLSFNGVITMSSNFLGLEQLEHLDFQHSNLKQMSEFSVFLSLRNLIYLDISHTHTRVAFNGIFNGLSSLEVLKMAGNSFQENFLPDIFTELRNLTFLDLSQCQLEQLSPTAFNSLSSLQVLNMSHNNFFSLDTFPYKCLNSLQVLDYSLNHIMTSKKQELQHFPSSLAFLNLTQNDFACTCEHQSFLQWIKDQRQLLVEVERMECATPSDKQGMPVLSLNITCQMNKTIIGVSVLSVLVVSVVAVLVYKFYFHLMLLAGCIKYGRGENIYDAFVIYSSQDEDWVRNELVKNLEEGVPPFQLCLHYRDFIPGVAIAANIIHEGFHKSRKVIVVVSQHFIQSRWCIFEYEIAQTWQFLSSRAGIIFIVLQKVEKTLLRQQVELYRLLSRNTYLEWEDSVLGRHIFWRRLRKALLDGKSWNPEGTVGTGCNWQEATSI
T4 sequence (Q9Y6Y9 17-160 limits assumed): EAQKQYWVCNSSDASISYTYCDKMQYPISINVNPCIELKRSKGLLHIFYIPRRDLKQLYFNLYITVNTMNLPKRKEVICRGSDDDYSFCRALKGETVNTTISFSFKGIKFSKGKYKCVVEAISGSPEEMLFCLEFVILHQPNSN
T3 sequence (P08684 whole entry): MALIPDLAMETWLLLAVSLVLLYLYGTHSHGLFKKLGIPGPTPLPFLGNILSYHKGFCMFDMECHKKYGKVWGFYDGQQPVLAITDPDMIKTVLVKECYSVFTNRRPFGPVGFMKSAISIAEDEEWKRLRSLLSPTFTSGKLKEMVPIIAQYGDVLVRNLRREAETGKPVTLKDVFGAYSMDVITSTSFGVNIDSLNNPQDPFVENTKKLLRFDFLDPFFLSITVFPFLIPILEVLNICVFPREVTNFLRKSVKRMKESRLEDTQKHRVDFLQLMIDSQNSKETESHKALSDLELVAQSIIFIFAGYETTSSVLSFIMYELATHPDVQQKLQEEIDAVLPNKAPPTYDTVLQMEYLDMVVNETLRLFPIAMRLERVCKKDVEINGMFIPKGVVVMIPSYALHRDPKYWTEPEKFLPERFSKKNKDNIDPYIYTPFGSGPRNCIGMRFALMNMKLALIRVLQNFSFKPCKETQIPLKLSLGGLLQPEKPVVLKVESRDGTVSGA
T2 sequence (P10635 whole entry): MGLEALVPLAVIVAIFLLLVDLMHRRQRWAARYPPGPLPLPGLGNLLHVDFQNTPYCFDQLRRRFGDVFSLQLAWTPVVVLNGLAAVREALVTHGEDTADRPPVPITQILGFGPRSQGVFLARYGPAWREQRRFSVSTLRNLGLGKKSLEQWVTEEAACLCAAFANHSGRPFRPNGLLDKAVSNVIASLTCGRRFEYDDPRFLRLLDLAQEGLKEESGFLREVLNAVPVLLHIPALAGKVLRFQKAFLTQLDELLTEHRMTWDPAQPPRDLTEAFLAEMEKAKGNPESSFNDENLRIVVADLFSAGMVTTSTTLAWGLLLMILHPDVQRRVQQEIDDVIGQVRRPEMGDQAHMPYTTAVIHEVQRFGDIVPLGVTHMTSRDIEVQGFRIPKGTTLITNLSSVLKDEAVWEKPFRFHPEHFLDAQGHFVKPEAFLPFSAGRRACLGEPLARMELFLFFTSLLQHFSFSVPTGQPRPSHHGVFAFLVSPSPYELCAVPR

CCCN(CCC)C(=O)C1=Cc2ccc(-c3ccc(C(=O)N4CCCC4)cc3)cc2N=C(N)C1 [Motolimod, motolimod]
IC50 (CYP 1A2): > 10 µM
IC50 (CYP 2D6): > 10 µM
IC50 (CYP 3A4): > 10 µM
serum G-CSF, Mean Values (serum cytokines; 0 h (pre-dose)): 7.135 pg/mL
serum IFN-γ, Mean Values (serum cytokines; 0 h (pre-dose)): 1.017 pg/mL
serum IL-1β, Mean Values (serum cytokines; 0 h (pre-dose)): 0.000 pg/mL
serum IL-6, Mean Values (serum cytokines; 0 h (pre-dose)): 1.510 pg/mL
serum IL-8, Mean Values (serum cytokines; 0 h (pre-dose)): 0.000 pg/mL
serum IL-10, Mean Values (serum cytokines; 0 h (pre-dose)): 0.271 pg/mL
serum IL-12p40, Mean Values (serum cytokines; 0 h (pre-dose)): 131.413 pg/mL
serum IL-12p70, Mean Values (serum cytokines; 0 h (pre-dose)): 2.582 pg/mL
serum MIP-1α, Mean Values (serum cytokines; 0 h (pre-dose)): 71.636 pg/mL
serum MIP-1β, Mean Values (serum cytokines; 0 h (pre-dose)): 93.266 pg/mL
serum G-CSF, Mean Values (serum cytokines; 6 h): 345.154 pg/mL
serum IFN-γ, Mean Values (serum cytokines; 6 h): 0.500 pg/mL
serum IL-1β, Mean Values (serum cytokines; 6 h): 0.286 pg/mL
serum IL-6, Mean Values (serum cytokines; 6 h): 342.661 pg/mL
serum IL-8, Mean Values (serum cytokines; 6 h): 0.378 pg/mL
serum IL-10, Mean Values (serum cytokines; 6 h): 15.222 pg/mL
serum IL-12p40, Mean Values (serum cytokines; 6 h): 305.212 pg/mL
serum IL-12p70, Mean Values (serum cytokines; 6 h): 5.154 pg/mL
serum MIP-1α, Mean Values (serum cytokines; 6 h): 227.638 pg/mL
serum MIP-1β, Mean Values (serum cytokines; 6 h): 1655.094 pg/mL
serum G-CSF, Mean Values (serum cytokines; 24 h): 32.168 pg/mL
serum IFN-γ, Mean Values (serum cytokines; 24 h): 0.462 pg/mL
serum IL-1β, Mean Values (serum cytokines; 24 h): 0.099 pg/mL
serum IL-6, Mean Values (serum cytokines; 24 h): 12.185 pg/mL
serum IL-8, Mean Values (serum cytokines; 24 h): 0.119 pg/mL
serum IL-10, Mean Values (serum cytokines; 24 h): 1.347 pg/mL
serum IL-12p40, Mean Values (serum cytokines; 24 h): 118.409 pg/mL
serum IL-12p70, Mean Values (serum cytokines; 24 h): 3.305 pg/mL
serum MIP-1α, Mean Values (serum cytokines; 24 h): 87.417 pg/mL
serum MIP-1β, Mean Values (serum cytokines; 24 h): 221.881 pg/mL
AUC(0-inf) (in vivo): 270 ng·h/mL
AUC(0-t) (in vivo): 270 ng·h/mL
Cmax (in vivo): 80 ng/mL
MRT inf (in vivo): 2.95 h
Tmax (in vivo): 2 h
half-life (in vivo): 1.43 h
AUC(0-t) [1]: 2.99 ng·h/mL
Cmax [1]: 1.52 ng/mL
Tmax [1]: 0.53 h
t1/2 [1]: 1.73 h
EC50 (hTLR4): > 50 µM
